Data as given in patent publication US20240194290A1, “HIDDEN ANTIBIOTICS IN THE HUMAN PROTEOME” (THE TRUSTEES OF THE UNIVERSITY OF PENNSYLVANIA, priority 2021, published 2024).
Ends that are not written are not given here.

Columns and labels:
P. aeruginosa PAO1 = experiment: Outer membrane permeabilization (NPN uptake) assay; type: cell-based, Pseudomonas aeruginosa; conditions: peptides at MIC
Method: (§1) FIG. 10. Membrane permeabilization and depolarization assays for several bacterial strains. […] FIG. 10B: Cytoplasmic membrane depolarization assays performed against P. aeruginosa PAO1 and the gut commensal B. fragilis ATCC25285.
(§2) Methods: Membrane depolarization assays. The cytoplasmic membrane depolarization activity of the peptides was determined by measurements of fluorescence of the membrane potential-sensitive dye, DiSC3(5). Briefly, A. baumannii ATCC19606, P. aeruginosa PAO1 and B. fragilis ATCC25285 were grown at 37° C. with agitation until they reached mid-log phase (OD600=0.5). […] Thereafter, the cells (100 μL) were incubated for 15 min with 20 nmol L^−1 of DiSC3(5) until a stable reduction of fluorescence was achieved, indicating the incorporation of the dye into the bacterial membrane. Membrane depolarization was then monitored by observing the change in the fluorescence emission intensity of the membrane potential-sensitive dye, DiSC3(5) (λex=622 nm, λem=670 nm), after the addition of peptides (100 μL solution at MIC values). […] The membrane permeability of the peptides was determined by using the N-phenyl-1-napthylamine (NPN) uptake assay. […] The background fluorescence was recorded at λex=350 nm and λem=420 nm. […]

B. fragilis ATCC25285 = experiment: Outer membrane permeabilization (NPN uptake) assay; type: cell-based, Bacteroides fragilis; conditions: peptides at MIC
Method: as §1, §2

S. epidermidis = experiment: Outer membrane permeabilization (NPN uptake) assay; type: cell-based, Staphylococcus epidermidis; conditions: peptides at MIC
Method: as §1, §2

A. baumannii ATCC19606 = experiment: Outer membrane permeabilization (NPN uptake) assay; type: cell-based, Acinetobacter baumannii; conditions: peptides at MIC, compared to untreated control and polymyxin B
Method: (§3) FIG. 3. Synergy, resistance development and mechanism of action studies of encrypted peptides. […] (FIG. 3B) Evolution of resistance by A. baumannii to encrypted peptides derived from the CUB domain (red) or polymyxin B (gray) after 30 days of serial passaging in liquid nutrient broth. Peptides and antibiotics were used at sub-inhibitory concentrations. Cells were passaged every 48 h. […] (FIG. 3D) Cytoplasmic membrane depolarization effects of the encrypted peptides against A. baumannii. (FIG. 3E) NPN assays showing the effect of encrypted peptides derived from the CUB domain and natriuretic peptide on permeabilization of the outer membrane of A. baumannii.
In order to investigate the mode of action of encrypted peptides against bacterial cells, assays were performed to study their effects on the bacterial membrane. First, the ability of encrypted peptides to disrupt and depolarize the bacterial cytoplasmic membrane was assessed […]. 3,3′-dipropylthiadicarbocyanine iodide [DiSC3(5)] was used, a potentiometric fluorophore that accumulates and aggregates in the cytoplasmic membrane, quenching its fluorescence. Upon imbalances of the cytoplasmic membrane transmembrane potential, the fluorophore migrates to the cytoplasm or the outer environment, generating fluorescence. […]
Methods: Membrane depolarization assays. The cytoplasmic membrane depolarization activity of the peptides was determined by measurements of fluorescence of the membrane potential-sensitive dye, DiSC3(5). […] Thereafter, the cells (100 μL) were incubated for 15 min with 20 nmol L^−1 of DiSC3(5) until a stable reduction of fluorescence was achieved, indicating the incorporation of the dye into the bacterial membrane. Membrane depolarization was then monitored by observing the change in the fluorescence emission intensity of the membrane potential-sensitive dye, DiSC3(5) (λex=622 nm, λem=670 nm), after the addition of peptides (100 μL solution at MIC values). […] The membrane permeability of the peptides was determined by using the N-phenyl-1-napthylamine (NPN) uptake assay. […]

A. baumannii = experiment: Bacterial resistance development assay (serial passaging); type: cell-based, Acinetobacter baumannii; conditions: after 26 days of serial passaging at sub-inhibitory concentrations
Method: as §3
In any antibiotic discovery effort, it is crucial to assess how readily the molecules identified select for resistance mechanisms in bacteria, as the emergence of resistance has hampered the antibiotic field since its very inception with the discovery of penicillin in 1928^38. To determine whether bacteria become resistant to encrypted peptides, longitudinal resistance assays were performed with peptides derived from the CUB domains 1 and 3 against A. baumannii, using polymyxin B as a control (FIG. 3B).
Methods: Bacterial resistance development assays. The evolution of resistance by A. baumannii cells to encrypted peptides was monitored for 30 days of serial passaging in liquid nutrient broth. […]

Substance	outer membrane permeabilization (NPN) (P. aeruginosa PAO1)	outer membrane permeabilization (NPN) (B. fragilis ATCC25285)	outer membrane permeabilization (NPN) (S. epidermidis)	outer membrane permeabilization (NPN fluorescence) (A. baumannii ATCC19606)	increase of concentrations needed to kill A. baumannii (A. baumannii)
natriuretic peptide: peptide hormone responsible for inducing the excretion of sodium by the kidneys (P01160) (SLRRSSCFGGRMDRIGAQSGLGCNSFRY; ends and bridges not checked; cysteine pairing not given here; UniProt P01160 124-151, looked up)	permeabilized	permeabilized	permeabilized	increased fluorescence	–
polymyxin B	–	–	–	–	≤ 256 fold
